Experiments:
Test in all cases: In vitro antibacterial activity, agar dilution MIC
Type in all cases: cell-based
[1] = tested on: Staphylococcus aureus CMX 553; design: unit not given here; settings: code FF, BHI agar, 35-37° C., 20 to 24 hours
Experimental: (§1) Representative compounds of the present invention were assayed in vitro for antibacterial activity as follows: Twelve petri dishes containing successive aqueous dilutions of the test compound mixed with 10 mL of sterilized Brain Heart Infusion (BHI) agar (Difco 0418-01-5) were prepared. Each plate was inoculated with 1:100 (or 1:10 for slow-growing strains, such as Micrococcus and Streptococcus) dilutions of up to 32 different microorganisms, using a Steers replicator block. The inoculated plates were incubated at 35-37° C. for 20 to 24 hours. In addition, a control plate, using BHI agar containing no test compound, was prepared and incubated at the beginning and end of each test.
(§2) An additional plate containing a compound having known susceptibility patterns for the organisms being tested and belonging to the same antibiotic class as the test compound was also prepared and incubated as a further control, as well as to provide test-to-test comparability.
(§3) After incubation, each plate was visually inspected. The minimum inhibitory concentration (MIC) was defined as the lowest concentration of drug yielding no growth, a slight haze, or sparsely isolated colonies on the inoculum spot as compared to the growth control.

[2] = tested on: Staphylococcus aureus 1775; design: unit not given here; settings: code GG, BHI agar, 35-37° C., 20 to 24 hours
Experimental: as §1, §2, §3

[3] = tested on: Enterococcus faecium ATCC X043; design: unit not given here; settings: code II, BHI agar, 35-37° C., 20 to 24 hours
Experimental: as §1, §2, §3

[4] = tested on: Streptococcus pyogenes PIU 2548; design: unit not given here; settings: code NN, BHI agar, 35-37° C., 20 to 24 hours
Experimental: as §1, §2, §3

[5] = tested on: Staphylococcus aureus A-5177; design: unit not given here; settings: code BB, BHI agar, 35-37° C., 20 to 24 hours
Experimental: as §1, §2, §3

[6] = tested on: Staphylococcus aureus ATCC 6538P; design: unit not given here; settings: code AA, BHI agar, 35-37° C., 20 to 24 hours
Experimental: as §1, §2, §3

[7] = tested on: Streptococcus pyogenes 930; design: unit not given here; settings: code MM, BHI agar, 35-37° C., 20 to 24 hours
Experimental: as §1, §2, §3

[8] = tested on: Streptococcus bovis A-5169; design: unit not given here; settings: code JJ, BHI agar, 35-37° C., 20 to 24 hours
Experimental: as §1, §2, §3

Escherichia coli JUHL = tested on: Escherichia coli JUHL; design: unit not given here; settings: code QQ, BHI agar, 35-37° C., 20 to 24 hours
Experimental: as §1, §2, §3

[9] = tested on: Nocardia Asteroides ATCC 99700; design: unit not given here; settings: code VV, BHI agar, 35-37° C., 20 to 24 hours
Experimental: as §1, §2, §3

[10] = tested on: Micrococcus luteus ATCC 9341; design: unit not given here; settings: code OO, BHI agar, 35-37° C., 20 to 24 hours
Experimental: as §1, §2, §3

[11] = tested on: Staphylococcus epidermidis 3519; design: unit not given here; settings: code HH, BHI agar, 35-37° C., 20 to 24 hours
Experimental: as §1, §2, §3

[12] = tested on: Mycobacterium smegmatis ATCC 114; design: unit not given here; settings: code UU, BHI agar, 35-37° C., 20 to 24 hours
Experimental: as §1, §2, §3

Escherichia coli DC-2 = tested on: Escherichia coli DC-2; design: unit not given here; settings: code SS, BHI agar, 35-37° C., 20 to 24 hours
Experimental: as §1, §2, §3

[13] = tested on: Staphylococcus aureus CMX 642A; design: unit not given here; settings: code DD, BHI agar, 35-37° C., 20 to 24 hours
Experimental: as §1, §2, §3

Escherichia coli SS = tested on: Escherichia coli SS; design: unit not given here; settings: code RR, BHI agar, 35-37° C., 20 to 24 hours
Experimental: as §1, §2, §3

Candida albicans CCH 442 = tested on: Candida albicans CCH 442; design: unit not given here; settings: code TT, BHI agar, 35-37° C., 20 to 24 hours
Experimental: as §1, §2, §3

[14] = tested on: Staphylococcus aureus NCTC 10649M; design: unit not given here; settings: code EE, BHI agar, 35-37° C., 20 to 24 hours
Experimental: as §1, §2, §3

[15] = tested on: Staphylococcus aureus A-5278; design: unit not given here; settings: code CC, BHI agar, 35-37° C., 20 to 24 hours
Experimental: as §1, §2, §3

[16] = tested on: Streptococcus agalactiae CMX 508; design: unit not given here; settings: code KK, BHI agar, 35-37° C., 20 to 24 hours
Experimental: as §1, §2, §3

[17] = tested on: Streptococcus pyogenes EES61; settings: code LL, BHI agar, 35-37° C., 20 to 24 hours
Experimental: as §1, §2, §3

[18] = tested on: Streptococcus Pneumonia GYR 1171; settings: code YY, 35-37° C., 20 to 24 hours
Experimental: as §1, §2, §3

[19] = tested on: Streptococcus Pneumonia 5649; settings: code ZZA (code list: ZA), 35-37° C., 20 to 24 hours
Experimental: as §1, §2, §3

[20] = tested on: Streptococcus Pneumonia 5979; settings: code ZZ, 35-37° C., 20 to 24 hours
Experimental: as §1, §2, §3

[21] = tested on: Micrococcus luteus ATCC 4698; settings: code PP, BHI agar, 35-37° C., 20 to 24 hours
Experimental: as §1, §2, §3

[22] = tested on: Streptococcus Pneumonia ATCC 6303; settings: code XX, 35-37° C., 20 to 24 hours
Experimental: as §1, §2, §3

[23] = tested on: Haemophilis Influenzae DILL AMP R; settings: code WW, 35-37° C., 20 to 24 hours
Experimental: as §1, §2, §3

With C=CCC1(C)C(=O)OC(CC)C2(C)OC(=O)NC2C(C)C(=O)C(C)CC(C)(OCC=Cc2cnc3ccccc3c2)C(OC2OC(C)CC(N(C)C)C2O)C(C)C1=O (stereo not drawn) [Example 4, Compound of formula (II): R^a is —CH2CH═CH—(3-quinolinyl), R^b is H, Y and Z together are O, T is —NH—, R is —CH2CH═CH2] the “Antibacterial Activity (MIC)” value [1] was 0.39, the “Antibacterial Activity (MIC)” value [2] was over 100 and the “Antibacterial Activity (MIC)” value [3] was 0.2. For the same compound, the “Antibacterial Activity (MIC)” value [4] was 0.78, the “Antibacterial Activity (MIC)” value [5] was 0.39 and the “Antibacterial Activity (MIC)” value [6] was 0.78. For the same compound, the “Antibacterial Activity (MIC)” value [7] was 12.5, the “Antibacterial Activity (MIC)” value [8] was 0.05 and the “Antibacterial Activity (MIC)” value (Escherichia coli JUHL) was over 100. For the same compound, the “Antibacterial Activity (MIC)” value [9] was 0.1, the “Antibacterial Activity (MIC)” value [10] was 0.1 and the “Antibacterial Activity (MIC)” value [11] was 0.39. For the same compound, the “Antibacterial Activity (MIC)” value [12] was 3.1, the “Antibacterial Activity (MIC)” value (Escherichia coli DC-2) was over 100 and the “Antibacterial Activity (MIC)” value [13] was 0.78. For the same compound, the “Antibacterial Activity (MIC)” value (Escherichia coli SS) was 3.1, the “Antibacterial Activity (MIC)” value (Candida albicans CCH 442) was over 100 and the “Antibacterial Activity (MIC)” value [14] was 0.78. The “Antibacterial Activity (MIC)” value [15] was over 100, the “Antibacterial Activity (MIC)” value [16] was 0.2 and the “Antibacterial Activity (MIC)” value [17] was 0.1. The “Antibacterial Activity (MIC)” value [18] was 0.25, the “Antibacterial Activity (MIC)” value [19] was 2 and the “Antibacterial Activity (MIC)” value [20] was 64. The “Antibacterial Activity (MIC)” value [21] was 0.78, the “Antibacterial Activity (MIC)” value [22] was 0.25 and the “Antibacterial Activity (MIC)” value [23] was 16.
For CCC1OC(=O)C(C)(O)C(=O)C(C)C(OC2OC(C)CC(N(C)C)C2O)C(C)(OCC=Cc2cnc3ccccc3c2)CC(C)C(=O)C(C)C2NC(=O)OC12C (stereo not drawn) [Example 8, Compound of formula (II): R^a is —CH2CH═CH—(3-quinolinyl), R^b is H, Y and Z together are O, T is —NH—, R is —OH,], the “Antibacterial Activity (MIC)” value [1] was 0.78, the “Antibacterial Activity (MIC)” value [2] was over 100 and the “Antibacterial Activity (MIC)” value [3] was 0.2. For the same compound, the “Antibacterial Activity (MIC)” value [4] was 0.39, the “Antibacterial Activity (MIC)” value [5] was 0.39 and the “Antibacterial Activity (MIC)” value [6] was 0.39. The “Antibacterial Activity (MIC)” value [7] was 50, the “Antibacterial Activity (MIC)” value [8] was 0.02 and the “Antibacterial Activity (MIC)” value (Escherichia coli JUHL) was over 100. For the same compound, the “Antibacterial Activity (MIC)” value [9] was 0.39, the “Antibacterial Activity (MIC)” value [10] was 0.02 and the “Antibacterial Activity (MIC)” value [11] was 0.39. The “Antibacterial Activity (MIC)” value [12] was 3.1, the “Antibacterial Activity (MIC)” value (Escherichia coli DC-2) was over 100 and the “Antibacterial Activity (MIC)” value [13] was 0.39. For the same compound, the “Antibacterial Activity (MIC)” value (Escherichia coli SS) was 0.2, the “Antibacterial Activity (MIC)” value (Candida albicans CCH 442) was over 100 and the “Antibacterial Activity (MIC)” value [14] was 0.78. For the same compound, the “Antibacterial Activity (MIC)” value [15] was over 100, the “Antibacterial Activity (MIC)” value [16] was 0.01 and the “Antibacterial Activity (MIC)” value [17] was 0.02. For the same compound, the “Antibacterial Activity (MIC)” value [18] was 0.03, the “Antibacterial Activity (MIC)” value [19] was 0.5 and the “Antibacterial Activity (MIC)” value [20] was 128. For the same compound, the “Antibacterial Activity (MIC)” value [21] was 0.2, the “Antibacterial Activity (MIC)” value [22] was 0.03 and the “Antibacterial Activity (MIC)” value [23] was 16.

— patent US20020193320A1, “C-2 modified erythromycin derivatives” (priority 1999, published 2002)
